Measured values as given in publication PMC6713262 (Cell, 2019).

Columns and labels:
Assay type in all cases: cell-based
[1] = target: wild-type CB2 (Homo sapiens, UniProt P34972); assay: Forskolin-stimulated cAMP accumulation
[2] = target: CB2 T127A (Homo sapiens, UniProt P34972, T127A); assay: Receptor activity at CB2 stabilizing point mutant T127A
[3] = target: CB2 G78L (Homo sapiens, UniProt P34972, G78L); assay: Receptor activity at CB2 stabilizing point mutant G78L
[4] = target: CB2 G304E (Homo sapiens, UniProt P34972, G304E); assay: Receptor activity at CB2 stabilizing point mutant G304E
[5] = target: CB2 T153L (Homo sapiens, UniProt P34972, T153L); assay: Receptor activity at CB2 stabilizing point mutant T153L
[6] = target: CB2 (Homo sapiens, UniProt P34972); assay: β-arrestin2 recruitment assay; conditions: for Emax (fold): CB2 β-arrestin2; for EC50: EC50, CB2 β-arrestin2
[7] = target: CB2 R242E (Homo sapiens, UniProt P34972, R242E); assay: Receptor activity at CB2 stabilizing point mutant R242E
[8] = target: CB1 (Homo sapiens, UniProt P21554); assay: β-arrestin2 recruitment assay at CB1; conditions: for Emax (fold): CB1 β-arrestin2
Chain of CB1 (P21554 whole entry): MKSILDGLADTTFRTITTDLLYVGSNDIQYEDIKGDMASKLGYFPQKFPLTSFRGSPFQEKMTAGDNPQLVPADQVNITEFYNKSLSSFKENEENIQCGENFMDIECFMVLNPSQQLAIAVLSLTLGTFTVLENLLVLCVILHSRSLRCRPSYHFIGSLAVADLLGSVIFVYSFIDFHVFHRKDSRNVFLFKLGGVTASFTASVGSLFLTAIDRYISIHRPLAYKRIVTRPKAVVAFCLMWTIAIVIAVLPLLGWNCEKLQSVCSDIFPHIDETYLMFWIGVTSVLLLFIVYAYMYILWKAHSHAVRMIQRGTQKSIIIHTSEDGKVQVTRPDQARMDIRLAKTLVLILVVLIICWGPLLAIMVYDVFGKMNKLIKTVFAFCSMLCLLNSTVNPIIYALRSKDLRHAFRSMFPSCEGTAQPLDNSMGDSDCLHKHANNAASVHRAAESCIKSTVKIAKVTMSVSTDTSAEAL

Chain of CB2 (P34972 whole entry): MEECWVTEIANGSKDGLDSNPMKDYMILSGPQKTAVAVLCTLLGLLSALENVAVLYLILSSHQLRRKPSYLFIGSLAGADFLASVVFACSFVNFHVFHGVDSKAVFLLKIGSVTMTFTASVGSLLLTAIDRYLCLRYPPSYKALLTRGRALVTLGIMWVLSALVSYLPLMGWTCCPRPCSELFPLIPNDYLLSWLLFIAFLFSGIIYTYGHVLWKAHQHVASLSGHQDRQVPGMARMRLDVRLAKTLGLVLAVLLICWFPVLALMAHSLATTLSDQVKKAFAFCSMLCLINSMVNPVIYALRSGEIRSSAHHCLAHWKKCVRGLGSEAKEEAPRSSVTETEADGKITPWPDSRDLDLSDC
Chain of wild-type CB2 (P34972 whole entry): as above
Chain of CB2 G304E (P34972 whole entry G304E): as the sequence (P34972 whole entry) above, with G304E counted along it
Chain of CB2 T127A (P34972 whole entry T127A): as the sequence (P34972 whole entry) above, with T127A counted along it
Chain of CB2 R242E (P34972 whole entry R242E): as the sequence (P34972 whole entry) above, with R242E counted along it
Chain of CB2 G78L (P34972 whole entry G78L): as the sequence (P34972 whole entry) above, with G78L counted along it
Chain of CB2 T153L (P34972 whole entry T153L): as the sequence (P34972 whole entry) above, with T153L counted along it

Row | SMILES | IC50 [1] | Kb [1] | Functional profile at CB2 (adenylyl cyclase assay) ([1]; against CP55,940, Figure 1B) | IC50 [2] | IC50 [3] | IC50 [4] | IC50 [5] | Functional profile at CB2 (β-arrestin2 recruitment) [6] | Emax (fold) ([6]; Figure 1C) | EC50 ([6]; Figure 1C) | EC50 ([6]; Figure 6C) | IC50 [7] | EC50 [8] | Functional profile at CB1 (β-arrestin2 recruitment) [8] | Emax (fold) ([8]; Figure 5C) | Emax (fold) ([6]; Figure 6C) | Emax (fold) ([8]; Figure 6D)
1 | Cc1c(C(=O)NC23CC4CC(CC(C4)C2)C3)nn(CCCCCO)c1-c1ccccc1 [AM10257, 1-(5-Hydroxypentyl)-4-methyl-5-phenyl-N-tricyclo[3.3.1.1^3,7]dec-1-yl-1H-pyrazole-3-carboxamide] | 35.9 ± 3.2 nM | 5.01 nM | competitive antagonist/inverse agonist | 40.1 ± 4.5 nM | 59.7 ± 8.1 nM | 32.1 ± 6.2 nM | 46.2 ± 4.6 nM | competitive antagonist/inverse agonist | 0.70 ± 0.05 fold | 0.53 ± 0.29 nM | 0.2 ± 0.04 nM | 46.7 ± 11.3 nM | 51.5 ± 7.4 nM | partial agonist | 2.4 ± 0.1 fold |  | 
2 | CC(=O)OCCn1c(C)c(C)sc1=NC(=O)C1C(C)(C)C1(C)C [MRI2594, 2-(4,5-dimethyl-2-((2,2,3,3-tetramethylcyclopropane-1-carbonyl)imino)thiazol-3(2H)-yl)ethyl acetate] |  |  |  |  |  |  |  | agonist |  |  | 0.17 ± 0.03 nM |  | 310 ± 54 nM | agonist |  | 2.0 ± 0.2 fold | 28.0 ± 2.0 fold
3 | CC(=O)OCCn1c(=NC(=O)C2C(C)(C)C2(C)C)sc2cc(C)ccc21 [MRI2687, 2-(6-methyl-2-((2,2,3,3-tetramethylcyclopropane-1-carbonyl)imino)benzo[d]thiazol-3(2H)-yl)ethyl acetate] |  |  |  |  |  |  |  | inverse agonist |  |  | 0.24 ± 0.06 nM |  | 114 ± 15 nM | partial agonist |  | 0.75 ± 0.04 fold | 6.0 ± 0.3 fold
